In US6126917A, “Epidermal growth factor receptor binding compounds for positron emission tomography” (Hadasit Medical Research Services and Development Ltd., priority 1999, dated 2000):
Where “and” joins values, the source holds several entries; their conditions need not be identical. Equal values may be shown once. Entries after “also recorded” stand apart in the source; their conditions may differ. Read-outs that look alike come from different tables or passages of the source.

Columns and labels:
[1] = target: T1, EGFR-TK (Homo sapiens, UniProt P00533); assay: EGFR-TK autophosphorylation inhibition (ELISA assay); assay type: biochemical
T1 construct: As a source of EGFR-TK, A431 human epidermoid carcinoma cell lysate was used; endogenous in cells; host or cells: A431 human epidermoid carcinoma cells (Triton X-100 lysate, EGFR captured by monoclonal antibody m108)
T1 sequence (P00533 25-1210): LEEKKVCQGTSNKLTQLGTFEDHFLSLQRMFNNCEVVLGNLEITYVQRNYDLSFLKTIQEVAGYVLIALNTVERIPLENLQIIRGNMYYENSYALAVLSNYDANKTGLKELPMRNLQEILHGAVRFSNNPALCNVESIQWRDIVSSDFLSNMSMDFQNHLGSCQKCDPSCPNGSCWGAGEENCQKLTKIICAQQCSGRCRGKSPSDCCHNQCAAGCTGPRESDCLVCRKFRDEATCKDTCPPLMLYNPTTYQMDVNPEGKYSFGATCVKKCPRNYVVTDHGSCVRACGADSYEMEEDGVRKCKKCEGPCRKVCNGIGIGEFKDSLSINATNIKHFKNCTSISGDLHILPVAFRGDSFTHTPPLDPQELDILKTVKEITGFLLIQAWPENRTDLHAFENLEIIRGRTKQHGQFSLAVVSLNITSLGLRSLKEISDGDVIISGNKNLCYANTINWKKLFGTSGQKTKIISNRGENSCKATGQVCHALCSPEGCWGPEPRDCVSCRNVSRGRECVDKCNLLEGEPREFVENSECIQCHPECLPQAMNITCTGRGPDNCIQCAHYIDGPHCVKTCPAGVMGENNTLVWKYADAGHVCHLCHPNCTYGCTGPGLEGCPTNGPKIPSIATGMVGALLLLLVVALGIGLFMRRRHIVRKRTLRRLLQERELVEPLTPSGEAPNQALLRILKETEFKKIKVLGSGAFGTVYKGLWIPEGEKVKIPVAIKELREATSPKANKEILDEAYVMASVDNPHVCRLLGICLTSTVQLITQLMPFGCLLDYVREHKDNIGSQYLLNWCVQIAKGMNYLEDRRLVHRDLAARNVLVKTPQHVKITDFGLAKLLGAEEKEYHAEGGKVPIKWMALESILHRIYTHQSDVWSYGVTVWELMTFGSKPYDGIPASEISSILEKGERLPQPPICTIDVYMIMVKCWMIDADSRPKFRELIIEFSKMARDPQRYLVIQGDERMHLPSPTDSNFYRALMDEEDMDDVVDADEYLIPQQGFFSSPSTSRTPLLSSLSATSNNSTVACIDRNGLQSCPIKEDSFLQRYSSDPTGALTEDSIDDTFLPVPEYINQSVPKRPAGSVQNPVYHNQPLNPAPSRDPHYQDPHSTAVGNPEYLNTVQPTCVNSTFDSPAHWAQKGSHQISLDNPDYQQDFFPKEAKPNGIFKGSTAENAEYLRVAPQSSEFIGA
Experimental: Autophosphorylation Inhibition Experiments:
EGFR-TK source: As a source of EGFR-TK, A431 human epidermoid carcinoma cell lysate was used. A431 cells were grown in DMEM containing 10% fetal calf serum and antibiotics penicillin and streptomycin). After several days, the cells were removed from the flasks by incubation at 37° C. with PBS/i mM EDTA buffer for 1 hour. […] Cell lysate was obtained with a further centrifugation (10,000 rpm×10 minutes at 4° C.), and the supernatant was collected and frozen at -70° C. in aliquots.
ELISA assay: EGFR-TK autophosphorylation IC50 values were obtained by means an ELISA assay. All the following incubations were performed at room temperature and with constant shaking. After each step the plate was washed with water (5×) and TBST buffer (1×). The final volume for each well was 150 μl. A Coming 96 well ELISA plate was coated with monoclonal anti EGFR antibody m108 (Sugen Inc.) diluted in PBS (pH 8.2), and kept overnight at 4° C.
After removing the unbound m108, the plate was washed and PBS containing 5% milk (1% fat) was added for the blocking (25 minutes). One aliquot of A431 cell lysate was thawed and added to the plate.
After 25 minutes, seven different concentrations of each inhibitor were added, and for each case one well was left as a control. All inhibitors were diluted in TBS/DMSO and the final concentration of DMSO was 0.05% in each well (including the controls).
After 25 minutes, and without washing the plate, ATP/MnCl2 solution was added in each well. The final concentration was 3 μM ATP/5 mM MnCl2. In this step the temperature was kept at 26° C. and the plate was under constant shaking. The incubation with ATP/MnCl2 was for 5 minutes.
Then, to stop the phosphorylation reaction, EDTA was added (pH 8, final concentration in each well 20 mM) and after 1 minute all the plate was washed.
Afterward, polyclonal anti-phosphotyrosine serum (Sugen, Inc.) was added (dilution of antibody in TBST containing 5% milk). The incubation was for 45 minutes.
For the calorimetric detection of phosphotyrosine in EGFR-TK, TAGO anti-rabbit peroxidase conjugate antibody (Sugen, Inc.) was added in TBST/5% milk solution (45 minutes).
After washing, the colorimetric reaction was performed by adding ABTS/H2 O2 in citrate-phosphate buffer.
The analysis of the data was performed with "Regression" software.
Since the exact concentrations of m108 in the stock solution and EGFR-TK in the cell lysate were unknown, an experiment was performed to determine the optimal dilution of m108 stock and lysate. Stock m108 (approx. 0.2-0.5 μg/μl) was diluted 1:400, 1:600, 1:800 and 1:1000 with PBS, while A431 cell lysate was diluted 1:2, 1:4, 1:6, 1:8, and 1:10.

[2] = cited from earlier work
[3] = average ± SEM, A431 cell lysate, 3 μM ATP/5 mM MnCl2, Table 1, read-out: Autophosphorylation IC50
[4] = read-out: IC50 toward epidermal growth factor receptor tyrosine kinase activity (autophosphorylation)

## COc1cc2ncnc(Nc3cc(F)cc(C(F)(F)F)c3)c2cc1OC [Compound 3, ^4-[(3-Fluoro-5-trifluoromethylphenyl)amino]-6,7-dimethoxyquinazoline]
[1]; [3]
  IC50: 116 ± 14 nM
[1]; [4]
  IC50: 116 nM

## COc1cc2ncnc(Nc3cc(Cl)c(Cl)cc3F)c2cc1OC [Compound 4, 4-[(3,4-Dichloro-6-fluorophenyl)amino]-6,7-dimethoxyquinazoline]
[1]
  EGFR-TK autophosphorylation inhibitor potency: most potent inhibitor; also recorded: very potent EGFR-TK autophosphorylation inhibitor
[1]; [3]
  IC50: 0.22 ± 0.18 nM
[1]; [4]
  IC50: 0.22 nM

## COc1cc2ncnc(Nc3ccc(F)cc3)c2cc1OC [Compound 1, 4-[(4-Fluorophenyl)amino]-6,7-dimethoxyquinazoline]
[1]; [3]
  IC50: 76.1 ± 3.2 nM
[1]; [4]
  IC50: 76 nM and 76.1 nM

## COc1cc2ncnc(Nc3cccc(Br)c3)c2cc1OC [PD 153035]
[2]; of maximum, after approximately 3 hours
  plasma level after approximately 3 hours, % of the maximum: 2%
[2]; two identified as 6- and 7-monodemethylated derivatives
  metabolism: metabolism to four compounds
